Measurements as given in patent US20200046800A1, “BIOCIDAL AGENT” ("VERTA RESEARCH-PRODUCTION COMPANY" LTD, priority 2017, published 2020).

Legend:
HPV-2 = settings: guinea pigs; cited from earlier work
[1] = guinea pigs, HPV-2; cited from earlier work
[2] = test system: human herpes simplex virus type 2 (HPV-2); settings: male rabbits, local application; cited from earlier work
[3] = test system: type 2 herpes simplex virus, strain G (ATCC VR-734); assay: Lethal herpes infection in mice by vaginal infection, protective effect of gels; type: in vivo
Excerpt: Eight groups of animals, containing 15 subjects each, were formed to conduct the experiment.
Groups 1-6: infected with type 2 herpes simplex virus and administered gels I-VI (experimental groups 1-6).
Group 8: infected with type 2 herpes simplex virus and not administered any pharmaceutical preparations (virus control).
Type 2 herpes simplex virus, strain G (ATCC VR-734, USA), was used in the experiment. The virus was cultivated in the T98G cell culture (human brain glioblastoma), then adapted to mice by two consecutive intracerebral passages. To prepare the final infective material, the animals were intracerebrally infected with brain tissue homogenate from the second passage; on the 4th day post infection, the animals were euthanized, their brain was extracted, homogenized, used to infect Vero cells, and incubated for 48 hours at 37° C. under 5% CO2 using the culture fluid, in which the infectious titer of the virus was previously determined, as the infective material.
The murine vaginal epithelium was injured with a scarifier for vaginal smears, after which the animals were infected with 30 μl of the virus at a 10^6 TCID50 dose. The examined gels were administered to mice in […] per the following regimen: 0.05 ml once a day 1, 2, 3, 4, and 5 days post infection.
The animals were followed for 18 days; their mortality was recorded daily. Cessation of mortality was defined by the absence of mice with signs of herpetic vaginitis (vaginal discharge) and complications thereof (posterior limb paresis). Based on the mortality data for each group, the mortality rate (Mr, ratio of the fallen animals at the time of control to the total number of infected animals in the group), protective index (IP, ratio of the difference in the percentage of mortality in the control and experimental groups to the percentage of mortality in the control group), and average life span of the animals (ALS) per each day of the experiment were calculated.
The protective effect of the peptide-containing gels was assessed by the reduction in the specific mortality and increase in the life span of the animals compared to the control group that wasn't treated.

[4] = n = 15, vaginal HSV-2 10^6 TCID50, gel 0.05 ml once a day days 1-5, followed 18 days
[5] = n = 15, vaginal HSV-2, followed 18 days

NH2-His-Gly-Val-Ser-Gly-His-Gly-Gln-His-Gly-Val-His-Gly-COOH (H-HGVSGHGQHGVHG-OH) [Peptide 1]
Disease duration (HPV-2): statistically significant reduction | Discharge of the virus from the lesions [1]: statistically significant reduction | Length of the primary genital herpes outbreak [2]: significantly shortened | Viral load on the body [2]: reduced

Nc1nc2c(ncn2COCCO)c(=O)[nH]1 [Acyclovir]
Number of dead animals [3, 4]: 4 | Number of survived animals [3, 4]: 11 | ALS (average life span) [3, 5]: 13.9 24 hrs. | Mortality [3, 5]: 26.7% | Increase in ALS ([3]; versus virus control, n = 15): 2.6
